Assay results reported in patent publication US12226418B2, “Dosing regimen for the treatment of PI3K related disorders” (Incyte Corporation, priority 2018, dated 2025).

Legend:
[1] = system: relapsed or refractory B-cell malignancies; experiment: Efficacy, Compound 1C monotherapy; format: in vivo, human; conditions: for durable response: included QW dosing
Experimental: The secondary endpoints were efficacy and PK. Efficacy was measured by best overall response rate (ORR), defined as the proportion of patients achieving a partial response (PR) or complete response (CR). Response was evaluated (per investigator's assessment) every 9 weeks based on the Lugano classification of lymphoma response criteria for HL and NHL (Cheson B. D. et al, Journal of Clinical Oncology, 2014; 32(27):3059-3067), the International Working Group on Chronic Lymphocytic Leukemia criteria for chronic lymphocytic leukemia (CLL) (Hallek M. et al, Blood, 2008; 111(12):5446-5456; Cheson B. D. et al, J Clin Oncol, 2012; 30(23):2820-2822)), and the VIth International Workshop on Waldenström Macroglobulinemia response assessment for Waldenström Macroglobulinemia (WM) (Owen R. G. et al, Br J Haematol, 2013; 160(2):171-176). If the patient's response to treatment was assessed by PET and CTI/MRI, then the PET result was used for response endpoints; CT/MRI result was used for an assessment if PET result was not available for the assessment; CT/MRI was used for response endpoints if it was the only form of assessment available for the patient.
(§1) Exploratory endpoints included: duration of response (DOR, duration of time from first response to death or disease progression, whichever occurred first); progression free survival (PFS, duration of time from first study dose to death or disease progression, whichever occurred first); population PK; pharmacodynamic (PD) relationship between PI3Kδ inhibition (as determined by an ex vivo phosphorylated AKT [pAKT] assay).

[2] = Clinical pharmacokinetics and food effect, Compound 1C monotherapy; format: in vivo
Experimental: Patients were assessed on Days 1, 8, and 15 of Cycle 1 and Day 1 (±3) of each subsequent treatment cycle.

[3] = system: phosphorylated AKT (pAKT; Ser473) in SU-DHL cells; experiment: Ex vivo phosphorylated AKT (pAKT) pharmacodynamic assay in patient whole blood; format: cell-based, human; conditions: all Compound 1C doses, up to 6 hours post-dose
Experimental: Compound 1C was dosed once daily and levels of phosphorylated AKT (pAKT; Ser473) were measured by flow cytometry in SU-DHL cells added to patient whole blood after Compound 1C treatment on day 15 of cycle 1.
as §1

CCOc1c([C@H](C)n2nc(C)c3c(N)ncnc32)cc(Cl)c(F)c1[C@@H]1CNC(=O)C1.Cl [Compound 1C, (R)-4-(3-((S)-1-(4-amino-3-methyl-1H-pyrazolo[3,4-d]pyrimidin-1-yl)ethyl)-5-chloro-2-ethoxy-6-fluorophenyl)pyrrolidin-2-one hydrochloric acid salt]
CR/CMR ([1]; CLL, N 6): 0 (0) n (%)
Not evaluable/ not assessed ([1]; CLL, N 6): 1 (17) n (%)
ORR ([1]; CLL, N 6): 2 (33 [4-78]) n (% [95% CI])
PD/PMD ([1]; CLL, N 6): 1 (17) n (%)
PR/PMR ([1]; CLL, N 6): 2 (33) n (%)
ORR ([1]; DLBCL): 30%
median duration of response ([1]; DLBCL): 13.5 months
CR/CMR ([1]; DLBCL ABC, N 2): 0 (0) n (%)
Not evaluable/ not assessed ([1]; DLBCL ABC, N 2): 0 n (%)
ORR ([1]; DLBCL ABC, N 2): 1 (50 [1-99]) n (% [95% CI])
PD/PMD ([1]; DLBCL ABC, N 2): 1 (50) n (%)
PR/PMR ([1]; DLBCL ABC, N 2): 1 (50) n (%)
CR/CMR ([1]; DLBCL GCB, N 19): 4 (21) n (%)
Not evaluable/ not assessed ([1]; DLBCL GCB, N 19): 1 (5) n (%)
ORR ([1]; DLBCL GCB, N 19): 6 (32 [13-57]) n (% [95% CI])
PD/PMD ([1]; DLBCL GCB, N 19): 9 (47) n (%)
PR/PMR ([1]; DLBCL GCB, N 19): 2 (11) n (%)
deep responses (>75% decrease from baseline in target lesion size), patients ([1]; DLBCL, 20 evaluable): 10%
CR/CMR ([1]; DLBCL, N 23): 4 (17) n (%)
Not evaluable/ not assessed ([1]; DLBCL, N 23): 1 (4) n (%)
ORR ([1]; DLBCL, N 23): 7 (30 [13-53]) n (% [95% CI])
PD/PMD ([1]; DLBCL, N 23): 11 (48) n (%)
PR/PMR ([1]; DLBCL, N 23): 3 (13) n (%)
durable response ([1]; DLBCL): ~19 months
ORR ([1]; FL): 71%
median duration of response ([1]; FL): not reached
deep responses (>75% decrease from baseline in target lesion size), patients ([1]; FL, 14 evaluable): 50%
CR/CMR ([1]; FL, N 14): 3 (21) n (%)
Not evaluable/ not assessed ([1]; FL, N 14): 1 (7) n (%)
ORR ([1]; FL, N 14): 10 (71 [42-92]) n (% [95% CI])
PD/PMD ([1]; FL, N 14): 2 (14) n (%)
PR/PMR ([1]; FL, N 14): 7 (50) n (%)
durable response ([1]; FL): ~17 months
CR/CMR ([1]; HL, N 10): 0 (0) n (%)
Not evaluable/ not assessed ([1]; HL, N 10): 1 (10) n (%)
ORR ([1]; HL, N 10): 2 (20 [3-56]) n (% [95% CI])
PD/PMD ([1]; HL, N 10): 4 (40) n (%)
PR/PMR ([1]; HL, N 10): 2 (20) n (%)
ORR ([1]; MCL): 67%
median duration of response ([1]; MCL): not reached
deep responses (>75% decrease from baseline in target lesion size), patients ([1]; MCL, 8 evaluable): 38%
CR/CMR ([1]; MCL, N 9): 4 (44) n (%)
Not evaluable/ not assessed ([1]; MCL, N 9): 1 (11) n (%)
ORR ([1]; MCL, N 9): 6 (67 [30-93]) n (% [95% CI])
PD/PMD ([1]; MCL, N 9): 0 (0) n (%)
PR/PMR ([1]; MCL, N 9): 2 (22) n (%)
durable response ([1]; MCL): ≥ 14 months
ORR ([1]; MZL): 78%
median duration of response ([1]; MZL): 4.4 months
deep responses (>75% decrease from baseline in target lesion size), patients ([1]; MZL, 7 evaluable): 57%
responses occurring by the first assessment (~9 weeks) ([1]; MZL, FL, MCL, DLBCL): 93%
CR/CMR ([1]; MZL, N 9): 3 (33) n (%)
Not evaluable/ not assessed ([1]; MZL, N 9): 0 n (%)
ORR ([1]; MZL, N 9): 7 (78 [40-97]) n (% [95% CI])
PD/PMD ([1]; MZL, N 9): 1 (11) n (%)
PR/PMR ([1]; MZL, N 9): 4 (44) n (%)
durable response ([1]; MZL): ~10 months
durable responses among patients receiving QW dosing ([1]; QW dosing): > 6 months
CR/CMR ([1]; WM, N 1): 0 (0) n (%)
Not evaluable/ not assessed ([1]; WM, N 1): 0 n (%)
ORR ([1]; WM, N 1): 1 (100 [3-100]) n (% [95% CI])
PD/PMD ([1]; WM, N 1): 0 (0) n (%)
PR/PMR ([1]; WM, N 1): 1 (100) n (%)
patients who achieved an objective response ([1]; all patients with NHL administered 20 mg QD at time of regimen change): 11 patients
objective responses at the first disease assessment ([1]; of 11 patients with NHL administered 20 mg QD): 10
objective responses in patients previously treated with ibrutinib ([1]; of the 4 patients with MCL): 2 patients
deep responses, patients ([1]; relapsed or refractory B-cell NHL, 10 mg QD to 45 mg QD): > 30%
Cmax above the IC90 for pAKT inhibition ([2]; 20 mg QD): 16 fold
Ctrough above the IC90 for pAKT inhibition ([2]; 20 mg QD): 2 fold
decrease in AUC with high fat meal ([2]; food effect, 12 patients): 10%
decrease in Cmax with high fat meal compared with fasted state ([2]; food effect, 12 patients): 42%
fed versus fasted geometric mean ratio for AUC ([2]; food effect, 12 patients): 0.90
food effect analysis, timing of meals ([2]; human, in vivo): may be dosed without regard to timing of meals
inhibition of pAKT in whole blood [3]: near-maximal inhibition
